Measured values: article PMC11259170, “Small-molecule probe for IBD risk variant GPR65 I231L alters cytokine signaling networks through positive allosteric modulation” (Science Advances, 2024)
Like-named read-outs stand apart in the source and are kept apart here.

How the values were obtained:
hGPR65 = molecular target: T1, hGPR65 (Homo sapiens, UniProt Q8IYL9); assay: cAMP detection in HeLa expression cell line, hGPR65; assay type: cell-based; conditions: for EC50 / Emax: NA = no activity; for Emax: HeLa, relative to 100uM forskolin (100%) and DMSO (0%), read-out: hGPR Max Activity %
T1 construct: expressed in transfected cells; host or cells: HeLa (ATCC CCL-2), lentiviral transduction, pLX317
T1 sequence (Q8IYL9 whole entry): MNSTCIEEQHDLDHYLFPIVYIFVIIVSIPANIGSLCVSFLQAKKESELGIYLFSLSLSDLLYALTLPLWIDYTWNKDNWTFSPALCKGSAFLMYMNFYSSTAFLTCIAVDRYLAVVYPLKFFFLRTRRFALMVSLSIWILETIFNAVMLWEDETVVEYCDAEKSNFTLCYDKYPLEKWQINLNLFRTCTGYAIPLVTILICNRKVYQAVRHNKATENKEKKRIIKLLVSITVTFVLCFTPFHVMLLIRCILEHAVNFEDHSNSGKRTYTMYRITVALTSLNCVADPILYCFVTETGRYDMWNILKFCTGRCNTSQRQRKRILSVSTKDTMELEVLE
Description: (§1) HeLa stable expression cell lines were produced by lentiviral transduction. Briefly, lentiviral plasmids for each GPCR with a C-terminal V5 Tag ([…]) were made in a pLX317 backbone using competent Escherichia coli (New England Biolabs, C3050H). Lenti-X 293 T (Takara, 632810) cells were transfected with the lentiviral plasmids to produce virus. Low-passage HeLa cells (American Type Culture Collection, CCL-2) were then transduced with lentivirus. After 48 hours, HeLa cells were cultured under selection with puromycin (3 μg/ml) and allowed to recover and expand before storing stocks in liquid nitrogen.
(§2) cAMP was measured in cells using the Lance Ultra cAMP Kit. HeLa cells were cultured under puromycin (3 μg/ml) selection. One day before the experiment, cells were seeded in T75 flasks and allowed to adhere overnight. On the day of the experiment, cells were washed twice with Dulbecco’s PBS and lifted using prewarmed 1× versene solution (Gibco, 15040066). Cells were counted in HBSS (Gibco, 14025092) and then resuspended in stimulation buffer prepared according to the manufacturer’s instructions and adjusted to pH 7.2 using 1 M sodium hydroxide. Cells were added to the plate at a density of 1500 cells per well in white opaque 384-well assay ready microplates containing 100 nl of 10 mM compound in DMSO. Cells were stimulated for 30 min at RT, then lysed and incubated with detection reagents for 1 hour in the dark at RT. Plates were read on BMG Labtech PHERAstar FSX (excitation, 337 nm; emission, 620 and 665 nm). Data analysis was performed using GraphPad Prism.

mGPR65 = molecular target: T2, mGPR65 (Mus musculus, UniProt Q61038); assay: cAMP detection in HeLa expression cell line, mGPR65; assay type: cell-based; conditions: for Emax: HeLa, relative to 100uM forskolin (100%) and DMSO (0%), read-out: mGPR Max Activity %
T2 construct: expressed in transfected cells; host or cells: HeLa (ATCC CCL-2), lentiviral transduction, pLX317
T2 sequence (Q61038 whole entry): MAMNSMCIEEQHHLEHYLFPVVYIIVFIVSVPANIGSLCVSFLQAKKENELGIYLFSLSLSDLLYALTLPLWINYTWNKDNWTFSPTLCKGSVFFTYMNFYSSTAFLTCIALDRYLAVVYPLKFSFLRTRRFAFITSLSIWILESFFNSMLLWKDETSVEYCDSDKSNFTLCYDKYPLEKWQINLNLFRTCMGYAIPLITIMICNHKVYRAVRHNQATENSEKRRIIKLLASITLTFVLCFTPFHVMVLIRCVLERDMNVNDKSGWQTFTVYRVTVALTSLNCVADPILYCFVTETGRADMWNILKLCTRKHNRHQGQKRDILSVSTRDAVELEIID
Description: as §1, §2

[1] = system: GFP-expressing HeLa cells; assay: cAMP detection in HeLa expression cell line, GFP control; assay type: cell-based, human; conditions: Homo sapiens, HeLa; for Emax: relative to 100uM forskolin (100%) and DMSO (0%), read-out: GFP Max Activity %
Description: as §1, §2

[2] = 1st hGPR column pair, read-out: hGPR EC50
[3] = 2nd hGPR column pair, read-out: hGPR EC50
[4] = 1st mGPR column pair, NA = no activity, read-out: mGPR EC50
[5] = 2nd mGPR column pair, NA = no activity, read-out: mGPR EC50
[6] = 2nd mGPR column pair, NA = no activity
[7] = 2nd GFP column pair, NA = no activity
[8] = 1st GFP column pair, NA = no activity

Compound | EC50 (hGPR65; [2]) [nM] | EC50 (hGPR65; [3]) [nM] | Emax (hGPR65; 1st hGPR column pair) [%] | Emax (hGPR65; 2nd hGPR column pair) [%] | EC50 (mGPR65; [4]) [µM] | EC50 (mGPR65; [5]) [µM] | Emax (mGPR65; [6]) [%] | Emax (mGPR65; NA = no activity) [%] | EC50 [1, 7] [nM] | Emax [1, 7] [%] | EC50 [1, 8] [nM] | Emax [1, 8] [%] | further results
CCCc1cc(-c2cc(O)n3ncc(C(=O)Nc4ccccc4)c3n2)no1 [BRD0124] | 1120 | 1750 | 62.1 | 71.8 | 0.247 | 0.151 | 56.2 | 63 | 24600 | 2.25 |  |  | 
COCc1ccc(-c2cc(O)n3ncc(C(=O)NC4CCOCC4)c3n2)cc1 [BRD0202] |  |  |  |  |  |  |  |  |  |  | 15600 | 6.11 | 
Cc1n[nH]c(C)c1CCc1cc(O)n2ncc(C(=O)Nc3ccc(Cl)cc3)c2n1 [BRD1303] |  |  |  |  | 15.9 |  |  | 10.7 |  |  | 38600 | 5.8 | 
Cc1ccc(NC(=O)c2cnn3c(O)cc(-c4cccc(C)c4)nc23)cc1 [BRD1420] | 3710 |  | 22.9 |  | 0.471 |  |  | 2.06 |  |  | 317 | 2.36 | 
COCc1ccc(-c2cc(O)n3ncc(C(=O)Nc4ccccc4C)c3n2)cc1 [BRD2974] |  |  |  |  | 26.4 |  |  | 8.27 |  |  | 3660 | 19.4 | 
O=C(O)c1cnn2c(O)cc(-c3ccccc3)nc12 [BRD3374] |  |  |  |  |  |  |  |  |  |  | 3780 | 4.66 | 
Cc1ccc(NC(=O)c2cnn3c(O)cc(-c4ccc(N5CCCC5)cc4)nc23)cc1 [BRD4336] | 8860 |  | 14.5 |  |  |  |  |  |  |  | 13800 | 9.65 | 
Cc1ccc(NC(=O)c2cnn3c(O)cc(-c4ccc(N5CCOCC5)cc4)nc23)cc1 [BRD4390] | 703 | 265 | 73.5 | 76.8 | 0.403 | 1.07 | 26.8 | 26.6 | 11700 | 2.2 |  |  | 
CC(C)OCc1ccc(-c2cc(O)n3ncc(C(=O)Nc4ccccc4)c3n2)cc1 [BRD5060] | 3720 | 10800 | 94.5 | 109 | 2.07 | 1.62 | 48.6 | 64.4 | 78100 | 2.12 | 47000 | 5.52 | 
Cc1ccc(NC(=O)c2cnn3c(O)cc(-c4ccc(N5CCOCC5)c(Cl)c4)nc23)cc1 [BRD5062] | 1070 | 851 | 74.5 | 71.6 | 0.46 | 0.284 | 55.1 | 50.8 | 11400 | 1.01 | 24700 | 3.17 | 
CCOCc1ccc(-c2cc(O)n3ncc(C(=O)Nc4ccccc4)c3n2)cc1 [BRD5063] | 4060 | 5840 | 76.1 | 66.6 | 5.47 | 2.73 | 38 | 52.1 | 190 | 1.85 |  |  | 
COc1cc(-c2cc(O)n3ncc(C(=O)Nc4ccc(C)cc4)c3n2)ccc1F [BRD5066] | 1470 | 1840 | 67 | 70.4 | 1.15 | 0.781 | 29.4 | 31.3 | 6080 | 1.99 |  |  | 
Cc1ccc(NC(=O)c2cnn3c(O)cc(-c4cnc(N5CCN(C)CC5)c(Cl)c4)nc23)cc1 [BRD5069] |  |  |  | 1.75 |  |  | 42.5 | 63.3 |  |  | 1570 | 2.17 | EC50 (hGPR65; hGPR EC50): 6240 nM; EC50 (mGPR65; mGPR EC50 (uM), 2nd mGPR column pair, NA = no activity): 5.03 µM; EC50 (mGPR65; mGPR EC50 (uM), NA = no activity): 0.65 µM
Cc1ccc(NC(=O)c2cnn3c(O)cc(-c4ccc(N5CCN(C)CC5)nc4)nc23)cc1 [BRD5070] | 1310 | 68.7 | 13.4 | 4.57 | 1.35 | 2.15 | 34.4 | 38.5 | 421 | 2.13 | 3200 | 2.48 | 
Cc1ccc(NC(=O)c2cnn3c(O)cc(-c4ccc(COC(C)C)cc4)nc23)cn1 [BRD5071] | 991 | 1890 | 74.2 | 60.4 | 1.54 | 1.61 | 61.2 | 60.5 |  |  | 24900 | 8.1 | 
Cc1ncc(NC(=O)c2cnn3c(O)cc(-c4ccc(COC(C)C)cc4)nc23)cn1 [BRD5072] | 8180 | 6930 | 59.1 | 48.2 | 4.79 | 5.04 | 49 | 51.1 | 376 | 1.42 | 6880 | 3.5 | 
Cc1cnc(NC(=O)c2cnn3c(O)cc(-c4ccc(COC(C)C)cc4)nc23)cn1 [BRD5073] | 2160 | 3050 | 73.6 | 65.1 | 2.27 | 2.78 | 59.1 | 71 | 3530 | 2.17 |  |  | 
O=C(Nc1ccccc1)c1cnn2c(O)cc(COc3ccccc3)nc12 [BRD5802] | 89800 |  | 55.7 |  |  |  |  |  |  |  | 41400 | 5.04 | 
Cc1ccc(NC(=O)c2cnn3c(O)cc(COc4ccccc4)nc23)cc1 [BRD6694] | 8030 | 4640 | 20.7 | 22.4 |  | 19.7 | 5.79 |  |  |  |  |  | 
CCOCc1ccc(-c2cc(O)n3ncc(C(=O)Nc4ccc(C)cc4)c3n2)cc1 [BRD6745] | 667 | 413 | 83.5 | 81.6 | 0.554 | 0.511 | 48.9 | 52.9 |  |  |  |  | 
Cc1ccc(NC(=O)c2cnn3c(O)cc(-c4ccc5ccccc5c4)nc23)cc1 [BRD7102] | 272 | 151 | 79.7 | 72.5 | 0.191 | 0.269 | 35.2 | 40.7 |  |  |  |  | potency and total cAMP production relative to BRD2813 (hGPR65; receptor not given): improved potency but had little effect on total cAMP production
Cc1ccc(NC(=O)c2cnn3c(O)cc(Cc4ccc5ccccc5c4)nc23)cc1 [BRD7330] |  |  |  |  |  |  |  |  |  |  |  |  | Emax (mGPR65; first pair): 11.6%; EC50 (mGPR65; SAR cAMP assay, first EC50/Max pair, read-out: mGPR EC50): 0.383 µM; EC50 ([1]; SAR cAMP assay, first EC50/Max pair of GFP control columns): 2320 nM; Emax ([1]; first pair): 1.96%
CCN(CC)C(=O)c1cnn2c(O)cc(-c3ccc(COC)cc3)nc12 [BRD7582] | 2640 |  | 4.89 |  |  |  |  |  |  |  | 6330 | 10.8 | 
O=C(O)c1cnn2c(O)cc(-c3ccc(F)cc3)nc12 [BRD7884] |  |  |  |  |  |  |  |  |  |  | 9180 | 3.25 | 
COc1ncccc1-c1cc(O)n2ncc(C(=O)Nc3ccc(Cl)cc3)c2n1 [BRD8007] |  |  |  |  | 2.17 |  |  | 20 |  |  | 6140 | 6.72 | 
CCn1cc(Cl)c(-c2cc(O)n3ncc(C(N)=O)c3n2)n1 [BRD8068] |  |  |  |  | 16.4 |  |  | 13.4 |  |  | 52900 | 40.7 | 
COc1ccc(-c2cc(O)n3ncc(C(=O)Nc4ccc(C)cc4)c3n2)cc1 [BRD9965] | 734 | 924 | 73.8 | 66 | 24.2 | 32.3 | -39 | -56.6 |  |  |  |  | 
COCc1ccc(-c2cc(O)n3ncc(C(=O)Nc4ccc(NC(C)=O)cc4)c3n2)cc1 [BRD9998] | 17600 |  | 1.34 |  |  |  |  |  |  |  | 91800 | 3.25 | 
